In patent US20230399321A1, “CRYSTALLINE FORM II OF MELANOCORTIN RECEPTOR AGONIST COMPOUND AND PREPARATION METHOD THEREFOR” (LG CHEM, LTD., priority 2020, published 2023):
Where a name gives a salt, the structure may show the parent alone.

Assays:
[1] = Stability assessment by HPLC after storage; assay type: physicochemical; conditions: for HPLC analysis result, Open ACC: open state, accelerated condition (40° C., 75% RH); for HPLC analysis result, Open ACC / HPLC analysis result, Closed STR: in % (unit assumed); for HPLC analysis result, Closed STR: sealed state, harsh condition, oven at 80° C.
Procedure: About 10-30 mg of the sample was stored for 4 weeks in an open state under the accelerated condition (40° C., 75% RH) or in a sealed state under the harsh condition in an oven at 80° C.

[2] = Thermogravimetric analysis (TGA); assay type: physicochemical; conditions: heated from 30° C. to 350° C. at 10° C./min; no weight loss in the DSC endothermic section
Procedure: The TGA was measured using Mettler Toledo TGA/DSC 1 module. About 4-8 mg of the sample is weighed and put into a 100 μL Al crucible (flat-bottomed aluminum crucibles). Then, TGA measurement is performed while the sample is heated from 30° C. to 350° C. at a rate of 10° C./min. During the measurement, nitrogen gas is supplied to the inside of the instrument at a rate of 80 mL/min to prevent the inflow of oxygen and other gases. Data collection and evaluation were performed using the software STARe.

With CC(C)C(=O)N([C@H]1C[C@@H](C(=O)N2CCOCC2)N(C(=O)[C@@H]2CN(C(C)(C)C)C[C@H]2c2ccc(Cl)cc2)C1)[C@H]1CC[C@@H](C)CC1 [Example 1, N-((3S,5S)-1-((3S,4R)-1-(tert-butyl)-4-(4-chlorophenyl)pyrrolidine-3-carbonyl)-5-(morpholine-4-carbonyl)pyrrolidin-3-yl)-N-((1s,4R)-4-methylcyclohexyl) isobutyramide hydrochloride] the “chemical stability to heat and humidity” value ([1]; 4 weeks under the accelerated condition (40° C., 75% RH) and the harsh condition (80° C.)) was “showed chemical stability for 4 weeks”, the “HPLC analysis result, Open ACC” value ([1]; Week 2) was 97.67 and the “HPLC analysis result, Closed STR” value ([1]; Week 2) was 97.73. The “HPLC analysis result, Open ACC” value ([1]; Week 4) was 97.82, the “HPLC analysis result, Closed STR” value ([1]; Week 4) was 97.94 and the HPLC analysis result, Initial ([1]; initial, before storage) was 97.7%. For the same molecule, the thermal stability [2] was “thermally stable crystalline form”.
